From patent US20260125375A1 (Pfizer Inc., priority 2022, published 2026)

Assays:
[1] = target: T1, WT CBL-B (36-427) (Homo sapiens, UniProt Q13191); assay: Surface Plasmon Resonance (SPR) assay, binding affinity and kinetics, CBL-B; conditions: SPR at 10° C., biotinylated WT CBL-B (36-427) on streptavidin chip; geometric mean; read-out: CBL-B SPR Kd (nM) GMean
T1 construct: N-terminal biotinylated WT CBL-B (36-427) and C-CBL (46-435) were captured on a streptavidin (SA) coated sensor chip
Procedure: (§1) Surface Plasmon Resonance (SPR) Assay
(§2) The purpose of the SPR assay is to evaluate the binding affinity and kinetics of the compound of disclosure binding to CBL-B and C-CBL.
(§3) The binding affinity and kinetics of compound binding to CBL-B and C-CBL were measured by Surface Plasmon Resonance (SPR) using either Biacore S200, 8K or 8K+ (Cytiva, Marlborough, MA) instruments. N-terminal biotinylated WT CBL-B (36-427) and C-CBL (46-435) were captured on a streptavidin (SA) coated sensor chip to achieve approximately 5000 to 6000 RUs of surface density. Un-functionalized SA surfaces with no immobilized protein served as reference for binding kinetic analysis. All the samples were prepared in buffer consisting of 10 mM HEPES, 150 mM NaCl, 0.05% Tween-20, 5% glycerol, […], 2% DMSO, pH 7.2. The same buffer was used as the running buffer during the experiments. Compound binding kinetics were measured in either multi-cycle or single-cycle kinetic format.
(§4) Multi-cycle kinetic analysis (MCK): A two-fold, 10-point serial dilution of test compounds was set-up in a 96-well microplate (Greiner; Cat #650101) with a top concentration of either 10 μM or 100 μM. Binding kinetics was measured at 10° C. by injecting serial dilution of compounds onto both reference and CBL immobilized channels at a flow rate of 100 μL/min and association time of 90 seconds. Compound dissociation was monitored for >400 seconds during each cycle. No additional regeneration was used. DMSO calibration curve was obtained before and after compound analysis by injecting 0-4% of DMSO in assay buffer. A suitable compound with known affinity and kinetics was tested once in every experiment as a positive control to assess activity of the captured proteins on the surface.
(§5) Single-cycle kinetic analysis (SCK): A 3-fold, 6-point serial dilution of compounds was set-up in a deep 96-well microplate (Greiner Bio; Cat #780201) with the highest concentration of 1 μM (concentration range: […]). Binding kinetics was measured at 10° C. by injecting serial dilutions of compounds in increasing order onto reference as well as CBL immobilized channels at a flow rate of 100 μL/min and association time of 120 seconds. Compound dissociation was monitored for >5400 seconds. Two buffer blanks were also run in a single-cycle kinetics format before the compound run for double referencing. No additional regeneration was used. DMSO calibration curve was obtained before and after compound analysis by injecting 0-4% of DMSO in the assay buffer. A suitable compound with known affinity and kinetics was tested once in every experiment as a positive control to assess activity of the captured proteins on the surface.

[2] = target: T2, C-CBL (residues 46-435) (Homo sapiens, UniProt P22681); assay: Ligand Displacement Assay (LDA), HTRF competitive binding against BODIPY-labeled fluorescent tracer, C-CBL; conditions: geometric mean of the number of tests, read-out: C-CBL Ki (nM) GMean
T2 construct: Purified CBL-B (residues 36-427) and C-CBL (residues 46-435) proteins from baculovirus-infected insect cells; made in house; host or cells: baculovirus-infected insect cells
T2 sequence (P22681 46-435): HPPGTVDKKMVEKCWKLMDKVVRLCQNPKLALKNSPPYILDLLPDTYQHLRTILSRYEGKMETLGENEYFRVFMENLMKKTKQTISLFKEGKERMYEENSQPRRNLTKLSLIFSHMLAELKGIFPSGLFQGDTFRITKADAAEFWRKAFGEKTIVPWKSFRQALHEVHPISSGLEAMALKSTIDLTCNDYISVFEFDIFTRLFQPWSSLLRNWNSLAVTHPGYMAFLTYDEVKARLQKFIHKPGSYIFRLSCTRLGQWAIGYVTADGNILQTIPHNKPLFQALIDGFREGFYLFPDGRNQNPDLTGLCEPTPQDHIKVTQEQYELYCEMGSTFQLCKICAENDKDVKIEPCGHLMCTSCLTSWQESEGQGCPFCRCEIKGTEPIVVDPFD
Description: (§6) Ligand Displacement Assay (LDA)
(§7) The purpose of the homogeneous time-resolved fluorescence energy transfer (HTRF) ligand displacement assay is to determine whether the compounds of the disclosure are competitive with a BODIPY-labeled compound; “fluorescent tracer” aka [6-cyclopropyl-5-(17-{5-[(3,5-dimethyl-2H-pyrrol-2-ylidene-KN)methyl]-1H-pyrrol-2-yl-κN}-15-oxo-5,8,11-trioxa-2,14-diazaheptadecan-1-yl)-N-(3-{3-[(4-methyl-4H-1,2,4-triazol-3-yl)methyl]oxetan-3-yl}phenyl)pyridine-2-carboxamidato](difluorido)boron and to assess CBL-B binding selectivity over C-CBL. The synthesis of this fluorescent tracer compound is described below.
(§8) Purified CBL-B (residues 36-427) and C-CBL (residues 46-435) proteins from baculovirus-infected insect cells were biotin labeled on their amino-terminal AviTag™ epitopes by the E. coli biotin ligase BirA to bind terbium-labeled streptavidin (SA-Tb). After optimizing the assays and determining KD values for the fluorescent tracer to CBL-B and C-CBL, compounds were tested using three-fold serial dilutions in duplicate from a top concentration of […] with a final DMSO concentration of 2%. […] The Ki (nM) values reported are the geometric means (GMean) of the number of tests conducted.

[3] = target: T3, CBL-B (residues 36-427) (Homo sapiens, UniProt Q13191); assay: Ligand Displacement Assay (LDA), HTRF competitive binding against BODIPY-labeled fluorescent tracer, CBL-B; conditions: geometric mean of the number of tests, read-out: CBL-B Ki (nM) GMean
T3 construct: Purified CBL-B (residues 36-427) and C-CBL (residues 46-435) proteins from baculovirus-infected insect cells; made in house; host or cells: baculovirus-infected insect cells
Description: as §6, §7, §8

[4] = target: T4, C-CBL (46-435) (Homo sapiens, UniProt P22681); assay: Surface Plasmon Resonance (SPR) assay, binding affinity and kinetics, C-CBL; conditions: SPR at 10° C., biotinylated C-CBL (46-435) on streptavidin chip; geometric mean; read-out: C-CBL SPR Kd (nM) GMean
T4 construct: N-terminal biotinylated WT CBL-B (36-427) and C-CBL (46-435) were captured on a streptavidin (SA) coated sensor chip
T4 sequence (P22681 46-435): T2 sequence (P22681 46-435)
Procedure: as §1, §2, §3, §4, §5

## Cn1cnnc1CC1(c2cccc(-c3n[nH]c4c(CN5C[C@@H](F)[C@@H](F)C5)nc(C(F)(F)F)cc34)c2)COC1 [Example C67, 7-{[(3R,4S)-3,4-difluoropyrrolidin-1-yl]methyl}-3-(3-{3-[(4-methyl-4H-1,2,4-triazol-3-yl)methyl]oxetan-3-yl}phenyl)-5-(trifluoromethyl)-1H-pyrazolo[3,4-c]pyridine]
[1]
  Kd: 4.4 nM
[2]
  Ki: 72.1 nM
[3]
  Ki: 12.6 nM
[4]
  Kd: 51 nM

## Cn1cnnc1CC1(c2cccc(-c3n[nH]c4cnc(OC(F)(F)F)cc34)c2)COC1 [Example B9, 3-(3-{3-[(4-methyl-4H-1,2,4-triazol-3-yl)methyl]oxetan-3-yl}phenyl)-5-(trifluoromethoxy)-1H-pyrazolo[3,4-c]pyridine]
[1]
  Kd: 32.5 nM
[2]
  Ki: 238 nM
[3]
  Ki: 74.5 nM
[4]
  Kd: 244 nM

## CNCc1nc(C(F)(F)F)cc2c(-c3cccc([C@H](c4nncn4C)C4CCC4)c3)n[nH]c12 [Example C103, 1-[3-{3-[(R)-cyclobutyl(4-methyl-4H-1,2,4-triazol-3-yl)methyl]phenyl}-5-(trifluoromethyl)-1H-pyrazolo[3,4-c]pyridin-7-yl]-N-methylmethanamine]
[1]
  Kd: 20.5 nM
[2]
  Ki: 389 nM
[3]
  Ki: 46 nM
[4]
  Kd: 349 nM

## Cn1cnnc1CC1(c2cccc(-c3n[nH]c4c(CNC5CC(F)(F)C5)nc(C(F)(F)F)cc34)c2)COC1 [Example C78, 3,3-difluoro-N-{[3-(3-{3-[(4-methyl-4H-1,2,4-triazol-3-yl)methyl]oxetan-3-yl}phenyl)-5-(trifluoromethyl)-1H-pyrazolo[3,4-c]pyridin-7-yl]methyl}cyclobutan-1-amine]
[1]
  Kd: 10 nM
[2]
  Ki: 253 nM
[3]
  Ki: 56.6 nM
[4]
  Kd: 144 nM

## CC(N[C@@H]1CCOC1)c1nc(C(F)(F)F)cc2c(-c3cccc(C4(Cc5nncn5C)COC4)c3)n[nH]c12 (single isomer, unassigned) [Example C85]
[1]
  Kd: 2.1 nM
[2]
  Ki: 92.5 nM
[3]
  Ki: 15.2 nM
[4]
  Kd: 82.5 nM

## Cn1cnnc1CC1(c2cccc(-c3n[nH]c4cnc(C5CC5)cc34)c2)COC1 [Example B4, 5-cyclopropyl-3-(3-{3-[(4-methyl-4H-1,2,4-triazol-3-yl)methyl]oxetan-3-yl}phenyl)-1H-pyrazolo[3,4-c]pyridine]
[1]
  Kd: 58.7 nM
[2]
  Ki: 254 nM
[3]
  Ki: 73.9 nM
[4]
  Kd: 578 nM

## CC(NC1CC2(COC2)C1)c1nc(C(F)(F)F)cc2c(-c3cccc([C@H](c4nncn4C)C4CCC4)c3)n[nH]c12 (single isomer, unassigned) [Example C98]
[1]
  Kd: 11.3 nM
[2]
  Ki: 109 nM
[3]
  Ki: 26.9 nM
[4]
  Kd: 205 nM

## C[C@@H](c1nc(C(F)(F)F)cc2c(-c3cccc(C4(Cc5nncn5C)COC4)c3)n[nH]c12)N1CC(F)C1 (single isomer, unassigned) [Example D43]
[1]
  Kd: 6.7 nM
[2]
  Ki: 75.1 nM
[3]
  Ki: 14.5 nM
[4]
  Kd: 80.2 nM

## CN(C)Cc1nc(C(F)(F)F)cc2c(-c3cccc(C4(Cc5nncn5C)COC4)c3)n[nH]c12 [Example C51, N,N-dimethyl-1-[3-(3-{3-[(4-methyl-4H-1,2,4-triazol-3-yl)methyl]oxetan-3-yl}phenyl)-5-(trifluoromethyl)-1H-pyrazolo[3,4-c]pyridin-7-yl]methanamine]
[1]
  Kd: 17.8 nM
[2]
  Ki: 115 nM
[3]
  Ki: 22 nM
[4]
  Kd: 182 nM

## Cn1cnnc1CC1(c2cccc(-c3n[nH]c4c(CN5CCOCC5)nc(C(F)(F)F)cc34)c2)COC1 [Example C63, 3-(3-{3-[(4-methyl-4H-1,2,4-triazol-3-yl)methyl]oxetan-3-yl}phenyl)-7-[(morpholin-4-yl)methyl]-5-(trifluoromethyl)-1H-pyrazolo[3,4-c]pyridine]
[1]
  Kd: 8 nM
[2]
  Ki: 120 nM
[3]
  Ki: 27 nM
[4]
  Kd: 91.8 nM

## Cn1cnnc1CC1(c2cccc(-c3n[nH]c4c(CN5CCNC(=O)C5)nc(C(F)(F)F)cc34)c2)COC1 [Example C55, 4-{[3-(3-{3-[(4-methyl-4H-1,2,4-triazol-3-yl)methyl]oxetan-3-yl}phenyl)-5-(trifluoromethyl)-1H-pyrazolo[3,4-c]pyridin-7-yl]methyl}piperazin-2-one]
[1]
  Kd: 3 nM
[2]
  Ki: 65.3 nM
[3]
  Ki: 21.2 nM
[4]
  Kd: 27.6 nM

## Cn1cnnc1CC1(c2cccc(-c3n[nH]c4c(CN5C[C@H](F)[C@@H](F)C5)nc(C(F)(F)F)cc34)c2)COC1 [Example C68, 7-{[(3S,4S)-3,4-difluoropyrrolidin-1-yl]methyl}-3-(3-{3-[(4-methyl-4H-1,2,4-triazol-3-yl)methyl]oxetan-3-yl}phenyl)-5-(trifluoromethyl)-1H-pyrazolo[3,4-c]pyridine]
[1]
  Kd: 10.7 nM
[2]
  Ki: 124 nM
[3]
  Ki: 24.8 nM
[4]
  Kd: 122 nM

## CC(CN)c1nc(C(F)(F)F)cc2c(-c3cccc(C4(Cc5nncn5C)COC4)c3)n[nH]c12 (single isomer, unassigned) [Example K7, (2ξ)-2-[3-(3-{3-[(4-methyl-4H-1,2,4-triazol-3-yl)methyl]oxetan-3-yl}phenyl)-5-(trifluoromethyl)-1H-pyrazolo[3,4-c]pyridin-7-yl]propan-1-amine]
[1]
  Kd: 8 nM
[2]
  Ki: 97.8 nM
[3]
  Ki: 26.6 nM
[4]
  Kd: 94.9 nM

## CCNC(C)c1nc(C(F)(F)F)cc2c(-c3cccc(C4(Cc5nncn5C)COC4)c3)n[nH]c12 (single isomer, unassigned) [Example C83, (1ξ)-N-ethyl-1-[3-(3-{3-[(4-methyl-4H-1,2,4-triazol-3-yl)methyl]oxetan-3-yl}phenyl)-5-(trifluoromethyl)-1H-pyrazolo[3,4-c]pyridin-7-yl]ethan-1-amine]
[1]
  Kd: 12.4 nM
[2]
  Ki: 137 nM
[3]
  Ki: 37.1 nM
[4]
  Kd: 161 nM

## CC(N[C@H]1CCOC1)c1nc(C(F)(F)F)cc2c(-c3cccc(C4(Cc5nncn5C)COC4)c3)n[nH]c12 (single isomer, unassigned) [Example C81]
[1]
  Kd: 4.6 nM
[2]
  Ki: 18.2 nM
[3]
  Ki: 6.5 nM
[4]
  Kd: 56.5 nM
